Experimental data published in patent US7915448B2, “Substituted sulfonylaminoarylmethyl cyclopropanecarboxamide as VR1 receptor antagonists” (Pfizer Inc., priority 2005, dated 2011).

Key:
human VR1 receptors = biological target: T1, human VR1 receptors (Homo sapiens, UniProt Q8NER1); assay: Human VR1 antagonist assay (Ca2+ imaging); type: cell-based; details: cells expressing human VR1, fura-2 Ca2+ imaging, FDSS 6000; capsaicin (300 nM) or acid (pH5.8) stimulation, table does not say which
T1 construct: host or cells: cells highly expressing human VR1; cell type not specified
T1 sequence (Q8NER1 whole entry): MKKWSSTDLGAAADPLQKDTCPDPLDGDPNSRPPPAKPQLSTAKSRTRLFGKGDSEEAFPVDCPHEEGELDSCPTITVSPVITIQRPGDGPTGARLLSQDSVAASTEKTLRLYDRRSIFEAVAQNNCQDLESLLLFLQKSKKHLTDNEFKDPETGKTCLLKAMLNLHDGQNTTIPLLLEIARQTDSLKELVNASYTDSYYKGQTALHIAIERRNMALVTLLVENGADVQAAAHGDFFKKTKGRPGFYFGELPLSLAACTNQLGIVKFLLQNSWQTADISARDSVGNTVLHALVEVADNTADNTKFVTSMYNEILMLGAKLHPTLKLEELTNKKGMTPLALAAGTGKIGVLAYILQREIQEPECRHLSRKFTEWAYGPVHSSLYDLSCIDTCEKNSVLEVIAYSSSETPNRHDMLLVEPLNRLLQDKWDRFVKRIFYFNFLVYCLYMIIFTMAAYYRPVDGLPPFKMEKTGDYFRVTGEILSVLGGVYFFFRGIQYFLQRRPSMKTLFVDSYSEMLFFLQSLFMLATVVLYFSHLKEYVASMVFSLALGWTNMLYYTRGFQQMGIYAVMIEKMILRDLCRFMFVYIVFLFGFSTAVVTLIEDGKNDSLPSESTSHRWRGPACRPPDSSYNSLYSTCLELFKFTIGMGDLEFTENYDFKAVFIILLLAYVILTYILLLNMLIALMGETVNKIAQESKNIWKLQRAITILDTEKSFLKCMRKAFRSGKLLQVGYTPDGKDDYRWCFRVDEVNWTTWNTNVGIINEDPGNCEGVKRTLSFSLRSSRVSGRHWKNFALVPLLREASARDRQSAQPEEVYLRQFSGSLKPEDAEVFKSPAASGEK
Description: Human VR1 Antagonist Assay
VR1 antagonistic activity can be determined by the Ca^2+ imaging assay using human VR1 highly expressing cells. The cells that highly express human VR1 receptors are obtainable from several different conventional methods. The one standard method is cloning from human Dorsal Root Ganglion (DRG) or kidney according to the methods such as described in the journal article; Nature, 389, pp 816-824, 1997. Alternatively VR1 receptors highly expressing human keratinocytes are also known and published in the journal article (Biochemical and Biophysical Research Communications, 291, pp 124-129, 2002). […] Further more, the method to up regulate human VR1 gene, which is usually a silent gene or don't produce detectable level of VR1 receptors, is also available to obtain propriety cells. Such genetic modification method was described in detail; Nat. Biotechnol., 19, pp 440-445, 2001.
The cells that express human VR1 receptors were maintained in culture flask at 37° C. in an environment containing 5% CO2 until use in the assay. The intracellular Ca^2+ imaging assay to determine VR1 antagonistic activities were done by following procedures.
The culture medium was removed from the flask and fura-2/AM fluorescent calcium indicator was added to the flask at a concentration of 5 μM in the medium. The flask was placed in CO2 incubator and incubated for 1 hour. Then the cells expressing the human VR1 receptors were detached from the flask follow by washing with phosphate buffer saline, PBS(−) and re-suspended in assay buffer. The 80 μl of aliquot of cell suspension (3.75×10^5 cells/ml) was added to the assay plate and the cells were spun down by centrifuge (950 rpm, 20° C., 3 minutes).
Capsaicin Stimulation Assay:
The capsaicin-induced changes in the intracellular calcium concentration were monitored using FDSS 6000 (Hamamatsu Photonics, Japan), a fluorometric imaging system. The cell suspension in Krebs-Ringer HEPES (KRH) buffer (115 mM NaCl, 5.4 mM KCl, 1 mM MgSO4, 1.8 mM CaCl2, 11 mM D-Glucose, 25 mM HEPES, 0.96 mM Na2HPO4, pH 7.3) were pre-incubated with varying concentrations of the test compounds or KRH buffer (buffer control) for 15 minutes at room temperature under the dark condition. Then capsaicin solution, which gives 300 nM in assay mixture, was automatically added to the assay plate by the FDSS 6000.
The Acid-induced changes in the intracellular calcium concentration were monitored using FDSS 6000 (Hamamatsu Photonics, Japan), a fluorometric imaging system. The cell suspension in resting buffer (HBSS supplemented with 10 mM HEPES, pH 7.4) were pre-incubated with varying concentrations of the test compounds or resting buffer (buffer control) for 15 minutes at room temperature under the dark condition. The cells were automatically added the stimulating solution (HBSS supplemented with MES, final assay buffer pH5.8) by the FDSS 6000.
Determination of Antagonist Activity
The monitoring of the changes in the fluorescence signals (λex=340 nm/380 nm, λem=510-520 nm) was initiated at 1 minute prior to the addition of capsaicin solution or acidic buffer and continued for 5 minute.

[1] = Half-life in Human Liver Microsomes (HLM); details: human, human liver microsomes (HL101), pH 7.4
Description: Test compounds (1 μM) were incubated with 3.3 mM MgCl2 and 0.78 mg/mL HLM (HL101) in 100 mM potassium phosphate buffer (pH 7.4) at 37° C. on the 96-deep well plate. The reaction mixture was split into two groups, a non-P450 and a P450 group. NADPH was only added to the reaction mixture of the P450 group. An aliquot of samples of P450 group was collected at 0, 10, 30, and 60 min time point, where 0 min time point indicated the time when NADPH was added into the reaction mixture of P450 group. An aliquot of samples of non-P450 group was collected at −10 and 65 min time point. Collected aliquots were extracted with acetonitrile solution containing an internal standard. The precipitated protein was spun down in centrifuge (2000 rpm, 15 min). The compound concentration in supernatant was measured by LC/MS/MS system.
The half-life value was obtained by plotting the natural logarithm of the peak area ratio of compounds/internal standard versus time. The slope of the line of best fit through the points yields the rate of metabolism (k).

Row | SMILES | IC50 (human VR1 receptors) | half-life at 1 μM [1]
1 | CC[C@@H](NC(=O)[C@H]1C[C@]1(C)c1ccc(C(F)(F)F)cc1)c1ccc(NS(C)(=O)=O)cc1 [Example 31, (1S,2S)-2-Methyl-N-((1R)-1-{4-[(methylsulfonyl)amino]phenyl}propyl)-2-[4-(trifluoromethyl)phenyl]cyclopropanecarboxamide] | 192 nM | > 120 min
2 | CCc1cc([C@@H](C)NC(=O)[C@H]2C[C@]2(C)c2ccc(C(F)(F)F)cc2)ccc1NS(C)(=O)=O [Example 32, (1S,2S)-N-((1R)-1-{3-Ethyl-4-[(methylsulfonyl)amino]phenyl}ethyl)-2-methyl-2-[4-(trifluoromethyl)phenyl]cyclopropanecarboxamide] | 0.934 nM | 10.8 min
3 | CCc1cc([C@@H](C)NC(=O)[C@H]2C[C@@H]2c2ccc(C(F)(F)F)cc2)ccc1NS(C)(=O)=O [Example 33, N-((1R)-1-{3-Ethyl-4-[(methylsulfonyl)amino]phenyl}ethyl)-2-[4-(trifluoromethyl)phenyl]cyclopropanecarboxamide] | 56.2 nM | 39 min
4 | CC[C@@H](NC(=O)[C@H]1C[C@]1(C)c1ccc(C(F)(F)F)cc1)c1ccc(NS(C)(=O)=O)c(C)c1 [Example 34, (1S,2S)-2-Methyl-N-((1R)-1-{3-methyl-4-[(methylsulfonyl)amino]phenyl}propyl)-2-[4-(trifluoromethyl)phenyl]cyclopropanecarboxamide] | 4.72 nM | > 120 min
5 | Cc1cc([C@@H](C)NC(=O)[C@H]2C[C@]2(C)c2ccc(C(C)(C)C(F)(F)F)cc2)ncc1NS(C)(=O)=O [Example 37, 2-Methyl-N-((1R)-1-{4-methyl-5-[(methylsulfonyl)amino]pyridin-2-yl}ethyl)-2-[4-(2,2,2-trifluoro-1,1-dimethylethyl)phenyl]cyclopropanecarboxamide] | 197 nM | 41 min
6 | C[C@@H](NC(=O)[C@H]1C[C@@H]1c1cc(F)c(C(C)(C)C)c(F)c1)c1ccc(NS(C)(=O)=O)cc1 [Example 38, 2-[4-tert-Butyl-3,5-difluorophenyl]-N-((1R)-1-{4-[(methylsulfonyl)amino]phenyl}ethyl)cyclopropanecarboxamide] | 70.9 nM | 40 min
7 | Cc1cc([C@@H](C)NC(=O)[C@H]2C[C@@H]2c2cc(F)c(C(C)(C)C)c(F)c2)ccc1NS(C)(=O)=O [Example 39, 2-(4-tert-Butyl-3,5-difluorophenyl)-N-((1R)-1-{3-methyl-4-[(methylsulfonyl)amino]phenyl}ethyl)cyclopropanecarboxamide] | 9.12 nM | 15 min
8 | C[C@@H](NC(=O)[C@H]1C[C@@H]1c1cc(F)c(C(C)(C)C)c(F)c1)c1ccc(NS(C)(=O)=O)c(F)c1 [Example 40, 2-(4-tert-Butyl-3,5-difluorophenyl)-N-((1R)-1-{3-fluoro-4-[(methylsulfonyl)amino]phenyl}ethyl)cyclopropanecarboxamide] | 32.5 nM | 35 min
9 | Cc1cc([C@@H](C)NC(=O)[C@H]2C[C@]2(C)c2ccc(C(F)(F)F)cc2)c(F)cc1NS(C)(=O)=O [Example 41, (1S,2S)-N-((1R)-1-{2-Fluoro-5-methyl-4-[(methylsulfonyl)amino]phenyl}ethyl)-2-methyl-2-[4-(trifluoromethyl)phenyl]cyclopropanecarboxamide] | 0.234 nM | 21 min
10 | Cc1cc([C@@H](C)NC(=O)[C@H]2C[C@]2(C)c2ccc(C(F)(F)F)c(F)c2)c(F)cc1NS(C)(=O)=O [Example 42, N-((1R)-1-{2-Fluoro-5-methyl-4-[(methylsulfonyl)amino]phenyl}ethyl)-2-[3-fluoro-4-(trifluoromethyl)phenyl]-2-methylcyclopropanecarboxamide] | 0.713 nM | 19.7 min
11 | C[C@@H](NC(=O)[C@H]1C[C@]1(C)c1cc(F)c(C(C)(C)C)c(F)c1)c1ccc(NS(C)(=O)=O)cc1 [Example 43, 2-(4-tert-Butyl-3,5-difluorophenyl)-2-methyl-N-((1R)-1-{4-[(methylsulfonyl)amino]phenyl}ethyl)cyclopropanecarboxamide] | 20.7 nM | 41 min
12 | Cc1cc([C@@H](C)NC(=O)[C@H]2C[C@]2(C)c2cc(F)c(C(C)(C)C)c(F)c2)ccc1NS(C)(=O)=O [Example 44, 2-(4-tert-Butyl-3,5-difluorophenyl)-2-methyl-N-((1R)-1-{3-methyl-4-[(methylsulfonyl)amino]phenyl}ethyl)cyclopropanecarboxamide] | 2 nM | 29 min
13 | C[C@@H](NC(=O)[C@H]1C[C@]1(C)c1cc(F)c(C(C)(C)C)c(F)c1)c1ccc(NS(C)(=O)=O)c(F)c1 [Example 45, 2-(4-tert-Butyl-3,5-difluorophenyl)-N-((1R)-1-{3-fluoro-4-[(methylsulfonyl)amino]phenyl}ethyl)-2-methylcyclopropanecarboxamide] | 5.84 nM | 29 min
14 | Cc1cc([C@@H](C)NC(=O)[C@H]2C[C@@H]2c2ccc(C(F)(F)F)nc2N2CCCC2)ccc1NS(C)(=O)=O [Example 46, N-((1R)-1-{3-Methyl-4-[(methylsulfonyl)amino]phenyl}ethyl)-2-[2-pyrrolidin-1-yl-6-(trifluoromethyl)pyridin-3-yl]cyclopropanecarboxamide] | 12.6 nM | 23 min
15 | C[C@@H](NC(=O)[C@H]1C[C@@H]1c1ccc(C(F)(F)F)nc1N1CCCC1)c1ccc(NS(C)(=O)=O)c(CO)c1 [Example 47, N-((1R)-1-{3-(Hydroxymethyl)-4-[(methylsulfonyl)amino]phenyl}ethyl)-2-[2-pyrrolidin-1-yl-6-(trifluoromethyl)pyridin-3-yl]cyclopropanecarboxamide] | 7.64 nM | 11 min
16 | C[C@@H](NC(=O)[C@H]1C[C@@H]1c1ccc(C(C)(C)C(F)(F)F)cc1)c1ccc(NS(C)(=O)=O)c(CO)c1 [Example 48, N-((1R)-1-{3-(Hydroxymethyl)-4-[(methylsulfonyl)amino]phenyl}ethyl)-2-[4-(2,2,2-trifluoro-1,1-dimethylethyl)phenyl]cyclopropanecarboxamide] | 203 nM | 21 min
17 | Cc1cc([C@@H](C)NC(=O)C2CC2c2ccc(C(C)(C)C)nc2N2CCCCC2)ccc1NS(C)(=O)=O (stereo partly drawn) [Example 49, 2-(6-tert-Butyl-2-piperidin-1-ylpyridin-3-yl)-N-((1R)-1-{3-methyl-4-[(methylsulfonyl)amino]phenyl}ethyl)cyclopropanecarboxamide] | 125 nM | 3 min
18 | C[C@@H](NC(=O)C1CC1c1ccc(C(C)(C)C)nc1N1CCCCC1)c1ccc(NS(C)(=O)=O)c(F)c1 (stereo partly drawn) [Example 50, 2-(6-tert-Butyl-2-piperidin-1-ylpyridin-3-yl)-N-((1R)-1-{3-fluoro-4-[(methylsulfonyl)amino]phenyl}ethyl)cyclopropanecarboxamide] | 239 nM | 4 min
19 | Cc1cc([C@@H](C)NC(=O)C2CC2c2ccc(C(C)(C)C)nc2N2CCCC2)ccc1NS(C)(=O)=O (stereo partly drawn) [Example 51, 2-(6-tert-Butyl-2-pyrrolidin-1-ylpyridin-3-yl)-N-((1R)-1-{3-methyl-4-[(methylsulfonyl)amino]phenyl}ethyl)cyclopropanecarboxamide] | 15.6 nM | 5 min
20 | Cc1cc([C@@H](C)NC(=O)C2CC2c2ccc(C(C)(C)C)nc2)ccc1NS(C)(=O)=O (stereo partly drawn) [Example 53, 2-[6-tert-Butylpyridin-3-yl]-N-((1R)-1-{3-methyl-4-[(methylsulfonyl)amino]phenyl}ethyl)cyclopropanecarboxamide] | 125 nM | 44 min
21 | Cc1nc([C@@H](C)NC(=O)C2CC2(C)c2ccc(C(F)(F)F)cc2)ccc1NS(C)(=O)=O (stereo partly drawn) [Example 54] | 234 nM | 96 min
